Test results published in paper PMC3583015 (Drug metabolism reviews, 2013).
Substitutions are numbered along the chain they refer to.

Key:
PXR [1] = conditions: ref Poulton et al., 2012; cited from earlier work
PXR LBD = conditions: ref Xue et al., 2007; cited from earlier work
Q272H PXR = target: T1, Q272H PXR (Homo sapiens, UniProt O75469, Q272H); assay: yeast two-hybrid screen of PXR mutants; assay type: cell-based; conditions: Q272H mutation at the surface AF-2 site
T1 sequence (O75469 1-434 Q272H): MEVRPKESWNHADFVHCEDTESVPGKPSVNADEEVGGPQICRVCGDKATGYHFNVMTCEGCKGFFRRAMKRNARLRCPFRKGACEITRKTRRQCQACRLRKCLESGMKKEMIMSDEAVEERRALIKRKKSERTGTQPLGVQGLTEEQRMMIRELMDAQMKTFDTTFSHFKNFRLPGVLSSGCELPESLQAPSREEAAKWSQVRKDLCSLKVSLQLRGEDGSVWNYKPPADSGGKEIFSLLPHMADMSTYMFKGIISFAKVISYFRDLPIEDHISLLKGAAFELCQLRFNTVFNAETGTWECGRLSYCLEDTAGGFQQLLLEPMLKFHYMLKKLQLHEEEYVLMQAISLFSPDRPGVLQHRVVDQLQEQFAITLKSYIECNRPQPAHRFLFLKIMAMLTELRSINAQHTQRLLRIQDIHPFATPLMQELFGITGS

[2] = tested on: constitutively active pocket-filling mutants of PXR; assay: antagonism of constitutively active pocket-filling mutants of PXR; assay type: cell-based; conditions: double and triple mutant forms
PXR [3] = target: T2, PXR (Homo sapiens, UniProt O75469); conditions: sustained for at least 48–72 hours; ref Fuchs et al., 2012; cited from earlier work
T2 sequence (O75469 1-434): T1 sequence (O75469 1-434 Q272H) with H272Q

T248E/K277Q form of PXR = conditions: ref Wang et al., 2007; cited from earlier work

For `C[S+]([O-])CCCCN=C=S` (stereo not drawn) [sulphoraphane, sulforaphane], the “effect in a humanized PXR mouse model” value (PXR [1]) is given as “absence of effect”.

For `O=S(=O)(c1ccccc1)N(CC(F)(F)F)c1ccc(C(O)(C(F)(F)F)C(F)(F)F)cc1` [T1317, T0901317], the Kd (PXR LBD) is listed as 11 nM.

For `CC(=O)N1CCN(c2ccc(OCC3COC(Cn4ccnc4)(c4ccc(Cl)cc4Cl)O3)cc2)CC1` (stereo not drawn) [ketoconazole], the “sensitivity of Q272H PXR to the antagonist” value (Q272H PXR) is listed as “insensitive”, the “antagonism of constitutively active pocket-filling PXR mutants” value [2] is listed as “still susceptible to antagonism” and the “concentration needed to antagonize PXR activation in vivo” value (PXR [3]) is listed as over 10 µM. For the same compound, the “antagonism of double-mutant T248E/K277Q PXR” value (T248E/K277Q form of PXR) was “not susceptible to antagonism”.
